The values that follow come from patent US5922580A, “Non-reducing saccharide-forming enzyme, its preparation and uses” (priority 1992, dated 1999).

SMILES strings stand for the structures.

For data set [1], the target named is T1, trehalase derived from pig kidney (Sus scrofa, UniProt I3LIR5).
T1 construct: purchased Sigma Chemical Company, St. Louis, USA; host or cells: pig kidney
T1 sequence (I3LIR5 24-583): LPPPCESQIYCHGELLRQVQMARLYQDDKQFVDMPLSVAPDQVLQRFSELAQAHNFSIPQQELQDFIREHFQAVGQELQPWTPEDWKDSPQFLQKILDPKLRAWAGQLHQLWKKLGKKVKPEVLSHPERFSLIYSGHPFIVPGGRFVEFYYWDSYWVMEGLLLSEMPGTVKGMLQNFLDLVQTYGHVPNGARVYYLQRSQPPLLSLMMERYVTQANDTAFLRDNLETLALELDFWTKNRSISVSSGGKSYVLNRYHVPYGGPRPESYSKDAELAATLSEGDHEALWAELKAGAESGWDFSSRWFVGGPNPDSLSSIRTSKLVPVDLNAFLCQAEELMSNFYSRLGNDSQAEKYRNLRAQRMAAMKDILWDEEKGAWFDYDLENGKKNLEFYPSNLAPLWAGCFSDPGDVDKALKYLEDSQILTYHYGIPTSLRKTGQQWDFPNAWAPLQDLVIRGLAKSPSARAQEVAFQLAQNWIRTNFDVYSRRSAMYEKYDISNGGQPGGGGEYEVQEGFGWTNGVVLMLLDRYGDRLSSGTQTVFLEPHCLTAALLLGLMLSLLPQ
The data set can be described thus: Hydrolysis by trehalase. As to conditions: one unit trehalase, pH 5.7, 37° C., 18 hours; HPLC. Type of data set: biochemical.

Data set [2] can be described thus: Hygroscopicity of product. The data set is classed as physicochemical. As to conditions: powdery product.

Consider `OC[C@H]1O[C@H](O[C@H]2O[C@H](CO)[C@@H](O)[C@H](O)[C@H]2O)[C@H](O)[C@@H](O)[C@@H]1O` [trehalose, α, α-trehalose], for which, in data set [1], the Hydrolysis by trehalase entry is recorded as “hydrolyzed by trehalase into glucose molecules”.

In the case of `OC[C@H]1O[C@H](O[C@H]2O[C@H](CO)[C@@H](O)[C@H](O)[C@H]2O)[C@H](O)[C@@H](O)[C@@H]1O` [Example A-6, trehalose], the Hygroscopicity entry in data set [2] is on record as “no substantial hygroscopicity”.
